Laboratory results reported in patent publication US8410081B2, “Treatment of cystic fibrosis” (Academisch Medisch Centrum, priority 2006, dated 2013).

Tests used:
[1] = system: delF508-CFTR containing epithelial CF cells (CF15); assay: cAMP-activated chloride current, perforated whole-cell patch-clamp / iodide efflux in CF15 cells; format: cell-based, human; details: 10 nM; del F508-CFTR containing epithelial CF cells
From the text: The effects of AMP-DNM on cAMP-activated chloride current in delF508-CFTR containing epithelial CF cells were studied with the following assay:
Perforated whole-cell patch-clamp analysis was applied to CF15 cells (human nasal epithelial cell line obtained from delF508 homozygous patient). Patch electrodes (GC150-TF10, Harvard Apparatus, USA) filled with intracellular solution (resistances of 3-4 MΩ) were connected to the RK-400 amplifier (Biologic, France) through an Ag/AgCl pellet. External solution (mM): 145 NaCl, 4 CsCl, 1 MgCl2, 1 CaCl2, 5 d-glucose, 10 TES (pH 7.4, 315 mOsm). Intra-pipette solution (mM): 113 l-aspartic acid, 113 CsOH, 27 CsCl, 1 NaCl, 1 EGTA, 1 MgCl2, 3 Mg-ATP (ex-temporane), 10 TES (pH 7.2 with CsOH, 285 mOsm) and amphotericin B (100 μg/ml) renewed every 2 h. Only cells with input resistance […] were analysed. The mean access resistance and whole cell capacitance were 12±0.6 MΩ and 35±4.3 pF (n=44). Currents were obtained in response to voltage steps from −80 to +80 mV in 20 mV increment. Data were collected using pClamp 6.0.3 package software (Axon Instruments, USA). CFTR Cl^− channel activity was assayed on a cell population by the iodide (^125I) efflux technique.

[2] = system: delF508-CFTR in ileal mucosa; assay: intestine explants from ileal mucosa of delF508 mice (short-circuit current, Western blot, immunohistochemistry); details: 10 nM
Protocol: To test the therapeutic potential of GBA2 inhibitors for CF further the effects of AMP-DNM on intestine explants from ileal mucosa of delF508 mice were analysed. The following assay was used:
Rotterdam delF508/delF508-CFTR mice (Cfr^tm1 Eur), their littermate controls (FVB inbred, 14-17 weeks old, weight between 20 and 30 g, kept on solid food in a pathogen-free environment) and Cftr-KO mice (Cftr^tm2 Cam) were used. Muscle-stripped ileal mucosa was incubated in William's E-Glutamax medium supplemented with insulin (10 μg/ml) and dexamethasone (20 μg/ml). At different time points, the compound was removed by repeated washings followed by short-circuit current (Isc) measurements in mini-Ussing chambers. Western blotting was as performed and immunoblots were probed with monoclonal mouse anti-CFTR antibody (10 μg/ml, IgG1 M3A7, Chemicon, USA). The protein levels were expressed as densitometry and percentage of controls. For immunohistochemistry, tissues were fixed in 4% (wt/vol) paraformaldehyde. Sections (5 μm) were stained with the antibody R3195 (1:500).

[3] = target: T1, GBA2 (non-lysosomal glucosylceramidase) (Homo sapiens, UniProt Q9HCG7); assay: non-lysosomal glucosylceramidase (GBA2) IC50 determination; format: biochemical; details: enzyme preparations exposed to dilutions of inhibitor
T1 construct: host or cells: GBA2 containing membranes
T1 sequence (Q9HCG7 1-927): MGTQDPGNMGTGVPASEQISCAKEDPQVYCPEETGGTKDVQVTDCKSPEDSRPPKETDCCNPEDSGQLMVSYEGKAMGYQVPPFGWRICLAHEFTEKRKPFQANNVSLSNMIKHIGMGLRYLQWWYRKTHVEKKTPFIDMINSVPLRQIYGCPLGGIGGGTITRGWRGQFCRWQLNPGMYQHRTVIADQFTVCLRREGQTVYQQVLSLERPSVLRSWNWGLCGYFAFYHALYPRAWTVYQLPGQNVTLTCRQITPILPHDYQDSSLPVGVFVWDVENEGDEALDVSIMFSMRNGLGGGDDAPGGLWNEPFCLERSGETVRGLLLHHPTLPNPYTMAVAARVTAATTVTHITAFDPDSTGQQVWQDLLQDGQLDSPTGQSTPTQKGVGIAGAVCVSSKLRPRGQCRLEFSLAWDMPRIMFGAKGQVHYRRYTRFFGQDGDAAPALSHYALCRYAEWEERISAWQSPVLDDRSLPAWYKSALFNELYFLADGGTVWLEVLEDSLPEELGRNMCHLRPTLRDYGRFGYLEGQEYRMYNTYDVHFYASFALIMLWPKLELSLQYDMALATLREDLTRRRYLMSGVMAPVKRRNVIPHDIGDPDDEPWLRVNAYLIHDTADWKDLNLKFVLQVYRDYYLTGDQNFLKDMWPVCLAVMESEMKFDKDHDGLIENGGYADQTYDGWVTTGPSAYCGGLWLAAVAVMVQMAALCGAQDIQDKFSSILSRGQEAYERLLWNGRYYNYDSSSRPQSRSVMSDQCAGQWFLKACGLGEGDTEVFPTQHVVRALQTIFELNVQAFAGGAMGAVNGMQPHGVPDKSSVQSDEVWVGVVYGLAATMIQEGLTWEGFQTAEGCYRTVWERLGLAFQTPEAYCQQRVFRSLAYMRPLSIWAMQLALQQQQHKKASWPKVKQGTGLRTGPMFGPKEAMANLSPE

[4] = target: T2, glucosylceramide synthase (GCS) (Homo sapiens, UniProt Q16739); assay: glucosylceramide synthase (GCS) IC50 determination; format: biochemical; details: for IC50: enzyme preparations exposed to dilutions of inhibitor
T2 sequence (Q16739 1-394): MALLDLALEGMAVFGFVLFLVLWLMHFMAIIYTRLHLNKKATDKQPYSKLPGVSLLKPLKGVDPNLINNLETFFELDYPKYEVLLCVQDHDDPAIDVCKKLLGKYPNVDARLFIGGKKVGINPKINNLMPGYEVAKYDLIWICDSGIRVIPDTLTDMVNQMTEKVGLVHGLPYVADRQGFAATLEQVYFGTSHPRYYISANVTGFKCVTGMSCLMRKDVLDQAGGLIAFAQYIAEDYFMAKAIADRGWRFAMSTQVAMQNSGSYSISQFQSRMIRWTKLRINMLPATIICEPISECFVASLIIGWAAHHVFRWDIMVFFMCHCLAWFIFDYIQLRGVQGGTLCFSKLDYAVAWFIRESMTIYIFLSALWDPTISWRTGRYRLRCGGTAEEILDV

SMILES | restoration of cAMP-activated chloride current, % of normal levels [1] | rescue of delF508-CFTR in intestinal crypts of ileal mucosa [2] | IC50 [3] [µM] | IC50 [4] [µM] | inhibition of GCS (in words) [4]
OC[C@@H]1[C@@H](O)[C@H](O)[C@@H](O)CN1CCCCCOCC12CC3CC(CC(C3)C1)C2 [AMP-DNM, N-[5′-(adamantan-1′-yl-methoxy)-pentan]-1-deoxynojirimycin] | up to 30% | rescues a mature and functional delF508-CFTR | – | – | –
OC[C@@H]1[C@@H](O)[C@H](O)[C@@H](O)CN1CCCCOCC12CC3CC(CC(C3)C1)C2 [N-[5′-(adamantan-1′-yl-methoxy)-butan]-1-deoxynojirimycin] | – | – | 0.002 | 10 | –
CC(C)(C)COCCCCCN1C[C@H](O)[C@@H](O)[C@H](O)[C@H]1CO [N-[5′-neopentyloxy-pentan]-1-deoxynojirimycin] | – | – | – | > 100 | hardly inhibits GCS
OC[C@@H]1[C@@H](O)[C@H](O)[C@@H](O)CN1CCCCCCC12CC3CC(CC(C3)C1)C2 [N-[6′-adamantyl-hexan]-1-deoxynojirimycin] | – | – | 0.001 | 7.5 | –
